Test system: patients with moderate to severe chronic low back pain
Assay: Global assessment of study medication, low back pain study
Type: in vivo, human
Conditions: LOCF, ITT
Method: Global assessment of study medication was also assessed at clinic visits during the titration and fixed-dose periods. The patient was prompted with the question, “How would you rate the study medication you received during the past week/past two weeks? (Please consider the quality of your pain relief, your side effects, your activity level, your mood and sense of well-being, etc. in this evaluation.)” Responses were selected from poor, fair, good, very good, and excellent.
Global assessment and quality of analgesia ratings were summarized descriptively by treatment group for both the titration and fixed-dose periods. Treatments were compared at each visit in the fixed-dose period, globally and in pairwise fashion, using the Cochran-Mantel-Haenszel row mean scores (CMH-RMS) test, using equally spaced scores.

**Q.** How did the “Global assessment EXCELLENT (4), number of patients” value (fixed dose period week 1) turn out when `COc1ccc2c3c1O[C@H]1C(=O)CC[C@@]4(O)[C@@H](C2)N(C)CC[C@]314` [OXY QID, oxycodone] was run?
**A.** The value was 14.

**Q.** What about the “Global assessment EXCELLENT (4), percent of patients” value (fixed dose period week 1) of the same molecule?
**A.** Its value is 6.8%.

**Q.** And the “Global assessment FAIR (1), number of patients” value (fixed dose period week 1)?
**A.** Its value is 23.

**Q.** What about the “Global assessment FAIR (1), percent of patients” value (fixed dose period week 1) of the same molecule?
**A.** The value was 11.2%.

**Q.** And the “Global assessment GOOD (2), number of patients” value (fixed dose period week 1)?
**A.** The value was 72.

**Q.** What about the “Global assessment POOR (0), number of patients” value (fixed dose period week 1) of the same molecule?
**A.** The value was 33.

**Q.** And the “Global assessment POOR (0), percent of patients” value (fixed dose period week 1)?
**A.** Its value is 16.0%.

**Q.** What about the “Global assessment VERY GOOD (3), number of patients” value (fixed dose period week 1) of the same molecule?
**A.** Its value is 63.

**Q.** What about the “Global assessment VERY GOOD (3), percent of patients” value (fixed dose period week 1) of the same molecule?
**A.** Its value is 30.6%.

**Q.** What about the “Global assessment EXCELLENT (4), number of patients” value (fixed dose period week 2) of the same molecule?
**A.** The value was 21.

**Q.** What about the “Global assessment EXCELLENT (4), percent of patients” value (fixed dose period week 2) of the same molecule?
**A.** Its value is 10.2%.

**Q.** What about the “Global assessment FAIR (1), number of patients” value (fixed dose period week 2) of the same molecule?
**A.** Its value is 22.

**Q.** And the “Global assessment FAIR (1), percent of patients” value (fixed dose period week 2)?
**A.** Its value is 10.7%.

**Q.** What about the “Global assessment GOOD (2), number of patients” value (fixed dose period week 2) of the same molecule?
**A.** Its value is 79.

**Q.** What about the “Global assessment POOR (0), number of patients” value (fixed dose period week 2) of the same molecule?
**A.** The value was 33.

**Q.** What about the “Global assessment POOR (0), percent of patients” value (fixed dose period week 2) of the same molecule?
**A.** Its value is 16.0%.

**Q.** And the “Global assessment VERY GOOD (3), number of patients” value (fixed dose period week 2)?
**A.** The value was 50.

**Q.** And the “Global assessment EXCELLENT (4), number of patients” value (fixed dose period week 4)?
**A.** The value was 20.

**Q.** And the “Global assessment EXCELLENT (4), percent of patients” value (fixed dose period week 4)?
**A.** The value was 9.7%.

**Q.** And the “Global assessment FAIR (1), number of patients” value (fixed dose period week 4)?
**A.** Its value is 26.

**Q.** And the “Global assessment FAIR (1), percent of patients” value (fixed dose period week 4)?
**A.** Its value is 12.6%.

**Q.** What about the “Global assessment GOOD (2), number of patients” value (fixed dose period week 4) of the same molecule?
**A.** Its value is 69.

**Q.** And the “Global assessment POOR (0), number of patients” value (fixed dose period week 4)?
**A.** The value was 37.

**Q.** What about the “Global assessment POOR (0), percent of patients” value (fixed dose period week 4) of the same molecule?
**A.** Its value is 18.0%.

**Q.** What about the “Global assessment VERY GOOD (3), number of patients” value (fixed dose period week 4) of the same molecule?
**A.** The value was 53.

**Q.** What about the “Global assessment EXCELLENT (4), number of patients” value (fixed dose period week 6) of the same molecule?
**A.** Its value is 23.

**Q.** And the “Global assessment EXCELLENT (4), percent of patients” value (fixed dose period week 6)?
**A.** The value was 11.2%.

**Q.** And the “Global assessment FAIR (1), number of patients” value (fixed dose period week 6)?
**A.** Its value is 28.

**Q.** And the “Global assessment FAIR (1), percent of patients” value (fixed dose period week 6)?
**A.** Its value is 13.6%.

**Q.** And the “Global assessment GOOD (2), number of patients” value (fixed dose period week 6)?
**A.** Its value is 73.

**Q.** What about the “Global assessment POOR (0), number of patients” value (fixed dose period week 6) of the same molecule?
**A.** Its value is 38.

**Q.** What about the “Global assessment POOR (0), percent of patients” value (fixed dose period week 6) of the same molecule?
**A.** The value was 18.4%.

**Q.** What about the “Global assessment VERY GOOD (3), number of patients” value (fixed dose period week 6) of the same molecule?
**A.** Its value is 43.

**Q.** What about the “Global assessment VERY GOOD (3), percent of patients” value (fixed dose period week 6) of the same molecule?
**A.** The value was 20.9%.

**Q.** And the “Global assessment EXCELLENT (4), number of patients” value (fixed dose period week 8)?
**A.** The value was 20.

**Q.** And the “Global assessment EXCELLENT (4), percent of patients” value (fixed dose period week 8)?
**A.** The value was 9.7%.

**Q.** What about the “Global assessment FAIR (1), number of patients” value (fixed dose period week 8) of the same molecule?
**A.** Its value is 34.

**Q.** What about the “Global assessment FAIR (1), percent of patients” value (fixed dose period week 8) of the same molecule?
**A.** Its value is 16.5%.

**Q.** And the “Global assessment GOOD (2), number of patients” value (fixed dose period week 8)?
**A.** Its value is 74.

**Q.** And the “Global assessment POOR (0), number of patients” value (fixed dose period week 8)?
**A.** The value was 36.

**Q.** What about the “Global assessment POOR (0), percent of patients” value (fixed dose period week 8) of the same molecule?
**A.** The value was 17.5%.

**Q.** And the “Global assessment VERY GOOD (3), number of patients” value (fixed dose period week 8)?
**A.** The value was 41.

**Q.** What about the “Global assessment VERY GOOD (3), percent of patients” value (fixed dose period week 8) of the same molecule?
**A.** Its value is 19.9%.

**Q.** And the “Global assessment EXCELLENT (4), number of patients” value (fixed dose period week 10)?
**A.** Its value is 23.

**Q.** What about the “Global assessment EXCELLENT (4), percent of patients” value (fixed dose period week 10) of the same molecule?
**A.** Its value is 11.2%.

**Q.** And the “Global assessment FAIR (1), number of patients” value (fixed dose period week 10)?
**A.** The value was 34.

**Q.** And the “Global assessment FAIR (1), percent of patients” value (fixed dose period week 10)?
**A.** Its value is 16.5%.

**Q.** What about the “Global assessment GOOD (2), number of patients” value (fixed dose period week 10) of the same molecule?
**A.** The value was 65.

**Q.** What about the “Global assessment GOOD (2), percent of patients” value (fixed dose period week 10) of the same molecule?
**A.** Its value is 31.6%.

**Q.** What about the “Global assessment POOR (0), number of patients” value (fixed dose period week 10) of the same molecule?
**A.** The value was 38.

**Q.** What about the “Global assessment POOR (0), percent of patients” value (fixed dose period week 10) of the same molecule?
**A.** Its value is 18.4%.

**Q.** What about the “Global assessment VERY GOOD (3), number of patients” value (fixed dose period week 10) of the same molecule?
**A.** The value was 45.

**Q.** And the “Global assessment VERY GOOD (3), percent of patients” value (fixed dose period week 10)?
**A.** The value was 21.8%.

**Q.** What about the “Global assessment EXCELLENT (4), number of patients” value (fixed dose period week 12) of the same molecule?
**A.** Its value is 22.

**Q.** And the “Global assessment EXCELLENT (4), percent of patients” value (fixed dose period week 12)?
**A.** The value was 10.7%.

**Q.** And the “Global assessment FAIR (1), number of patients” value (fixed dose period week 12)?
**A.** Its value is 33.

**Q.** And the “Global assessment FAIR (1), percent of patients” value (fixed dose period week 12)?
**A.** Its value is 16.0%.

**Q.** What about the “Global assessment GOOD (2), number of patients” value (fixed dose period week 12) of the same molecule?
**A.** The value was 75.

**Q.** What about the “Global assessment POOR (0), number of patients” value (fixed dose period week 12) of the same molecule?
**A.** The value was 38.

**Q.** What about the “Global assessment POOR (0), percent of patients” value (fixed dose period week 12) of the same molecule?
**A.** Its value is 18.4%.

**Q.** What about the “Global assessment VERY GOOD (3), number of patients” value (fixed dose period week 12) of the same molecule?
**A.** The value was 37.

**Q.** And the “Global assessment VERY GOOD (3), percent of patients” value (fixed dose period week 12)?
**A.** Its value is 18.0%.

From patent US20060009478A1, “Methods for the treatment of back pain” (priority 2003, published 2006)
